# Assays:
# Test in all cases: Deferred antagonism assay, producer S. salivarius M18
# Type in all cases: cell-based
# S. aureus A222 = conditions: for Zone of inhibition S. aureus A222: M18
# Protocol: (§1) 1-2 producer strain colonies were transferred from a stock plate into 900 μL of suspension solution using a fresh cotton swab. Following this, suspensions were vortexed, and a sample was inoculated onto solid culture media using a fresh cotton swab. The inoculation was a streak that runs diametrically across the agar plate in a 1.5 cm wide strip. The plate was then incubated. Following incubation all visible colonies were removed by swabbing them from the agar surface. The plates were then treated with chloroform by dispensing 2 ml of chloroform onto 4 cm×4 cm piece of cloth and sealing the inverted agar plate on top for 30 minutes. The plates were then air dried for 30 minutes following chloroforming. 1-2 indicator strain colonies were then transferred from a stock plate into complementary suspension solution. The suspensions were then vortexed, and a sample was inoculated onto the same agar surface. These samples were streaked in a perpendicular direction to the initial producer streak.
# (§2) Each indicator streak was prepared with fresh a suspension containing cells from a corresponding stock plate containing the indicator strain of interest. Indicator strains suspension samples were transferred using a fresh cotton swab. Results were measured by qualitatively reviewing the subsequent (if any) sizes of the zones of inhibition (ZOI) of indicator strain colony growth. A positive result is when there is a distinctive reduction or complete inhibition of indicator colony growth on the culture medium.
# (§3) CABCa agar plates containing various concentrations of saccharide were prepared according to the methods described in Method 1. Producer strains were transferred from stock agar plates into 900 μL THB using a fresh cotton swab. A plastic spread plater was cut to approximately 1.2 cm width and then dipped into ethanol and left to air dry to ensure sterility. A 100 μL sample of the producer strain suspension was then dispensed onto the agar surface in a straight line running diametrically across the agar surface in (approximately) 20 μL spots. The spots were spaced approximately 1.5 cm apart from each other. The plastic spreader was then used to evenly distribute the spots across the agar surface in a 1.5 cm wide strip. This step was taken to ensure an even producer streak was inoculated onto the agar surface and provided an approximate measure of the initial inoculum concentration. Separate plastic spreaders were used for samples containing different producer strains. The samples were left to soak into the agar surface until there was no visible liquid remaining on the agar surface (approximately 20 minutes). Following producer streak preparations, the deferred antagonism assay protocol was followed as per Method 2. Results were recorded by measuring the size of the zone of inhibition (ZOI) in mm.
# (§4) A dose response assay was carried out according to method 3 above, except a 1.2 cm streak was used. For the individual saccharide testing the pH of the producer streak was adjusted after the growth of producer to change the acidic conditions.
# (§5) A deferred antagonism assay was conducted using K12 or M18 raw ingredient suspended in Todd Hewitt broth (THB). This was spread as a 1.2 cm streak containing approximately 1-2×10^6 cfu down the middle of a CABCa control or CABCa galactose supplemented test plate. After 18 hrs growth at 37° C. with 5% CO2, bacterial growth was removed, and the pH of the agar in the initial streak was measured and adjusted to a pH of 6.5-7.5 using 0.5M sodium carbonate pH11 before sterilizing the agar surface using chloroform vapor. Bacterial test strains were suspended in i-THB before being swabbed across the plates perpendicular to the initial streak. Plates were incubated for a further 18 hrs incubation at 37° C. with 5% CO2 before measuring (mm) any zones of inhibition for each test strain, […]
# S. constellatus T29 = conditions: for Zone of inhibition S. constellatus T29: M18
# Protocol: as §1, §2, §3, §4, §5
# S. mutans OMZ175 = conditions: for Zone of inhibition S. mutans OMZ175: M18
# Protocol: as §1, §2, §3, §4, §5
# S. pneumoniae D39 = conditions: for Zone of inhibition S. pneumoniae D39: M18
# Protocol: as §1, §2, §3, §4, §5
# S. pyogenes 71-698 = conditions: for Zone of inhibition S. pyogenes 71-698: M18
# Protocol: as §1, §2, §3, §4, §5
# [1] = test system: S. saprophyticus ATCC 15305; conditions: for Zone of inhibition S. saprophyticus ATCC 15305: M18
# Protocol: as §1, §2, §3, §4, §5
# [2] = 1.25, 2.5, 5% w/v raffinose added
compound,measurement,setting,value
"OC[C@H]1O[C@H](OC[C@H]2O[C@H](O[C@]3(CO)O[C@H](CO)[C@@H](O)[C@@H]3O)[C@H](O)[C@@H](O)[C@@H]2O)[C@H](O)[C@@H](O)[C@H]1O [Raffinose, D-(+) Raffinose pentahydrate]",sensitivity of S. aureus A222 to M18,S. aureus A222; [2],sensitive
same,Zone of inhibition S. aureus A222,S. aureus A222; Raffinose 1.7% wt,20 mm
same,Zone of inhibition S. aureus A222,"S. aureus A222; Raffinose 1.7% wt, pH adjusted",17 mm
same,Zone of inhibition S. aureus A222,S. aureus A222; Raffinose 2.5% wt,20 mm
same,Zone of inhibition S. aureus A222,"S. aureus A222; Raffinose 2.5% wt, pH adjusted",18 mm
same,Zone of inhibition S. aureus A222,S. aureus A222; Raffinose 3.3% wt,18 mm
same,Zone of inhibition S. aureus A222,"S. aureus A222; Raffinose 3.3% wt, pH adjusted",17 mm
same,Zone of inhibition S. aureus A222,S. aureus A222; Raffinose 5% wt,16 mm
same,Zone of inhibition S. aureus A222,"S. aureus A222; Raffinose 5% wt, pH adjusted",13 mm
same,Zone of inhibition S. aureus A222,S. aureus A222; Raffinose 10% wt,0 mm
same,Zone of inhibition S. aureus A222,"S. aureus A222; Raffinose 10% wt, pH adjusted",0 mm
same,sensitivity of S. constellatus T-29 to M18,S. constellatus T29; [2],sensitive
same,Zone of inhibition S. constellatus T29,S. constellatus T29; Raffinose 1.7% wt,22 mm
same,Zone of inhibition S. constellatus T29,"S. constellatus T29; Raffinose 1.7% wt, pH adjusted",17 mm
same,Zone of inhibition S. constellatus T29,S. constellatus T29; Raffinose 2.5% wt,18 mm
same,Zone of inhibition S. constellatus T29,"S. constellatus T29; Raffinose 2.5% wt, pH adjusted",16 mm
same,Zone of inhibition S. constellatus T29,S. constellatus T29; Raffinose 3.3% wt,18 mm
same,Zone of inhibition S. constellatus T29,"S. constellatus T29; Raffinose 3.3% wt, pH adjusted",17 mm
same,Zone of inhibition S. constellatus T29,S. constellatus T29; Raffinose 5% wt,16 mm
same,Zone of inhibition S. constellatus T29,"S. constellatus T29; Raffinose 5% wt, pH adjusted",14 mm
same,Zone of inhibition S. constellatus T29,S. constellatus T29; Raffinose 10% wt,12 mm
same,Zone of inhibition S. constellatus T29,"S. constellatus T29; Raffinose 10% wt, pH adjusted",0 mm
same,sensitivity of S. mutans OMZ175 to M18,"S. mutans OMZ175; 0.5, 1.25, 2.5, and 5% w/v raffinose added",sensitive
same,Zone of inhibition S. mutans OMZ175,S. mutans OMZ175; Raffinose 1.7% wt,22 mm
same,Zone of inhibition S. mutans OMZ175,"S. mutans OMZ175; Raffinose 1.7% wt, pH adjusted",21 mm
same,Zone of inhibition S. mutans OMZ175,S. mutans OMZ175; Raffinose 2.5% wt,20 mm
same,Zone of inhibition S. mutans OMZ175,"S. mutans OMZ175; Raffinose 2.5% wt, pH adjusted",19 mm
same,Zone of inhibition S. mutans OMZ175,S. mutans OMZ175; Raffinose 3.3% wt,21 mm
same,Zone of inhibition S. mutans OMZ175,"S. mutans OMZ175; Raffinose 3.3% wt, pH adjusted",17 mm
same,Zone of inhibition S. mutans OMZ175,S. mutans OMZ175; Raffinose 5% wt,19 mm
same,Zone of inhibition S. mutans OMZ175,"S. mutans OMZ175; Raffinose 5% wt, pH adjusted",16 mm
same,Zone of inhibition S. mutans OMZ175,S. mutans OMZ175; Raffinose 10% wt,0 mm
same,Zone of inhibition S. mutans OMZ175,"S. mutans OMZ175; Raffinose 10% wt, pH adjusted",0 mm
same,inhibition by M18 of S. pneumoniae,S. pneumoniae D39; 0.5 to 10% w/v raffinose,increase in inhibition
same,Zone of inhibition S. pneumoniae D39,S. pneumoniae D39; Raffinose 1.7% wt,3 mm
same,Zone of inhibition S. pneumoniae D39,"S. pneumoniae D39; Raffinose 1.7% wt, pH adjusted",12 mm
same,Zone of inhibition S. pneumoniae D39,S. pneumoniae D39; Raffinose 2.5% wt,10 mm
same,Zone of inhibition S. pneumoniae D39,"S. pneumoniae D39; Raffinose 2.5% wt, pH adjusted",11 mm
same,Zone of inhibition S. pneumoniae D39,S. pneumoniae D39; Raffinose 3.3% wt,7 mm
same,Zone of inhibition S. pneumoniae D39,"S. pneumoniae D39; Raffinose 3.3% wt, pH adjusted",13 mm
same,Zone of inhibition S. pneumoniae D39,S. pneumoniae D39; Raffinose 5% wt,2 mm
same,Zone of inhibition S. pneumoniae D39,"S. pneumoniae D39; Raffinose 5% wt, pH adjusted",12 mm
same,Zone of inhibition S. pneumoniae D39,S. pneumoniae D39; Raffinose 10% wt,1 mm
same,Zone of inhibition S. pneumoniae D39,"S. pneumoniae D39; Raffinose 10% wt, pH adjusted",11 mm
same,inhibition by M18 of S. pyogenes,S. pyogenes 71-698; 0.5 to 10% w/v raffinose,increase in inhibition
same,Zone of inhibition S. pyogenes 71-698,"S. pyogenes 71-698; Raffinose 1.7% wt, pH adjusted",10 mm
same,Zone of inhibition S. pyogenes 71-698,S. pyogenes 71-698; Raffinose 2.5% wt,8 mm
same,Zone of inhibition S. pyogenes 71-698,"S. pyogenes 71-698; Raffinose 2.5% wt, pH adjusted",7 mm
same,Zone of inhibition S. pyogenes 71-698,S. pyogenes 71-698; Raffinose 3.3% wt,8 mm
same,Zone of inhibition S. pyogenes 71-698,"S. pyogenes 71-698; Raffinose 3.3% wt, pH adjusted",7 mm
same,Zone of inhibition S. pyogenes 71-698,S. pyogenes 71-698; Raffinose 5% wt,5 mm
same,Zone of inhibition S. pyogenes 71-698,"S. pyogenes 71-698; Raffinose 5% wt, pH adjusted",5 mm
same,Zone of inhibition S. pyogenes 71-698,S. pyogenes 71-698; Raffinose 10% wt,0 mm
same,Zone of inhibition S. pyogenes 71-698,"S. pyogenes 71-698; Raffinose 10% wt, pH adjusted",0 mm
same,sensitivity of S. saprophyticus ATCC 15305 to M18,[1]; [2],sensitive
same,Zone of inhibition S. saprophyticus ATCC 15305,[1]; Raffinose 1.7% wt,16 mm
same,Zone of inhibition S. saprophyticus ATCC 15305,"[1]; Raffinose 1.7% wt, pH adjusted",15 mm
same,Zone of inhibition S. saprophyticus ATCC 15305,[1]; Raffinose 2.5% wt,17 mm
same,Zone of inhibition S. saprophyticus ATCC 15305,"[1]; Raffinose 2.5% wt, pH adjusted",15 mm
same,Zone of inhibition S. saprophyticus ATCC 15305,[1]; Raffinose 3.3% wt,17 mm
same,Zone of inhibition S. saprophyticus ATCC 15305,"[1]; Raffinose 3.3% wt, pH adjusted",14 mm
same,Zone of inhibition S. saprophyticus ATCC 15305,[1]; Raffinose 5% wt,14 mm
same,Zone of inhibition S. saprophyticus ATCC 15305,"[1]; Raffinose 5% wt, pH adjusted",12 mm
same,Zone of inhibition S. saprophyticus ATCC 15305,[1]; Raffinose 10% wt,0 mm
same,Zone of inhibition S. saprophyticus ATCC 15305,"[1]; Raffinose 10% wt, pH adjusted",0 mm
